Data published in patent US6747024B1, “Heterocyclic compounds and their use as medicines” (Societe de Conseils de Recherches et d'Applications …, priority 1999, dated 2004).

Compound | melting point [°C]
CC(=O)O[C@@H]1OCC[C@@H]1NC(=O)[C@H](CC(C)C)NC(=O)c1ccc2c(c1)Nc1ccccc1S2 [Example 18.2, (2S,3S)-3-({(2S)-4-methyl-2-[(10H-phenothiazin-2-ylcarbonyl)amino]-pentanoyl}amino)tetrahydro-2-furanyl acetate] | 205 to 208
CC(=O)O[C@H]1OCC[C@@H]1NC(=O)[C@H](CC(C)C)NC(=O)c1ccc2c(c1)Nc1ccccc1S2 [Example 18.1, (2R,3S)-3-({(2S)-4-methyl-2-[(10H-phenothiazin-2-ylcarbonyl)amino]-pentanoyl}amino)tetrahydro-2-furanyl acetate] | 199 to 201
